{"source": "patent US5270047A", "about": "“Local delivery of dipyridamole for the treatment of proliferative diseases” (priority 1991, dated 1993)", "tested_on": "Smooth muscle cells from rabbit aorta", "assay": "Inhibition of DNA synthesis (3H thymidine incorporation) induced by PDGF, FGF or EGF", "assay_type": "cell-based", "conditions": "for inhibition at 0.08 µg/mL / inhibition at 0.15 µg/mL / inhibition at 0.32 µg/mL / inhibition at 0.64 µg/mL / inhibition at 1.2 µg/mL / inhibition at 2.5 µg/mL: Oryctolagus cuniculus, Platelet, 24 h, 1% platelet poor plasma; for inhibition at 0.08 µg/mL: dipyridamole 0.08 μg/ml; for inhibition at 0.15 µg/mL: dipyridamole 0.15 μg/ml; for inhibition at 0.32 µg/mL: dipyridamole 0.32 μg/ml; for inhibition at 0.64 µg/mL: dipyridamole 0.64 μg/ml; for inhibition at 1.2 µg/mL: dipyridamole 1.2 μg/ml; for inhibition at 2.5 µg/mL: dipyridamole 2.5 μg/ml", "description": "Dipyridamole inhibits smooth muscle cell proliferation induced by multiple growth factors. Smooth muscle cells from rabbit aorta (derived by explant method) were seeded in 96 well tissue culture plates in DMEM containing 10% fetal bovine serum, 2 mM L-glutamine, 100 U/ml penicillin and 100 μg/ml streptomycin. Growth arrested, confluent cultures in 96 well microtiter plates were incubated in medium containing 1% platelet poor plasma, 2 mM L-glutanime, 100 U/ml penicillin, 100 μg/ml streptomycin, 20 ng/ml PDGF, 3 ng/ml EGF (Genzyme), 3 ng/ml FGF (Genzyme), 1 μci/ml ^3 H thymidine and indicated concentrations of dipyridamole. Cells were incubated at 37° C. for 24 hours under 5% CO2 /95% air. At the end of 24 hours, cells were fixed in methanol. DNA synthesis was determined by ^3 H thymidine incorporation as previously described.", "data": [{"smiles": "OCCN(CCO)c1nc(N2CCCCC2)c2nc(N(CCO)CCO)nc(N3CCCCC3)c2n1", "note": "[Dipyridamole, 2,6-bis(diethanolamino)-4,8-dipiperidinopyrimido[5,4-d]pyrimidine]", "values": [{"measurement": "inhibition at 0.08 µg/mL", "setting": "EGF (3 ng/ml)", "value": 68, "unit": "%"}, {"measurement": "inhibition at 0.15 µg/mL", "setting": "EGF (3 ng/ml)", "value": 76, "unit": "%"}, {"measurement": "inhibition at 0.32 µg/mL", "setting": "EGF (3 ng/ml)", "value": 85, "unit": "%"}, {"measurement": "inhibition at 0.64 µg/mL", "setting": "EGF (3 ng/ml)", "value": 90, "unit": "%"}, {"measurement": "inhibition at 1.2 µg/mL", "setting": "EGF (3 ng/ml)", "value": 94, "unit": "%"}, {"measurement": "inhibition at 2.5 µg/mL", "setting": "EGF (3 ng/ml)", "value": 96, "unit": "%"}, {"measurement": "inhibition at 0.08 µg/mL", "setting": "FGF (3 ng/ml)", "value": 67, "unit": "%"}, {"measurement": "inhibition at 0.15 µg/mL", "setting": "FGF (3 ng/ml)", "value": 74, "unit": "%"}, {"measurement": "inhibition at 0.32 µg/mL", "setting": "FGF (3 ng/ml)", "value": 80, "unit": "%"}, {"measurement": "inhibition at 0.64 µg/mL", "setting": "FGF (3 ng/ml)", "value": 87, "unit": "%"}, {"measurement": "inhibition at 1.2 µg/mL", "setting": "FGF (3 ng/ml)", "value": 92, "unit": "%"}, {"measurement": "inhibition at 2.5 µg/mL", "setting": "FGF (3 ng/ml)", "value": 93, "unit": "%"}, {"measurement": "inhibition at 0.08 µg/mL", "setting": "PDGF (20 ng/ml)", "value": 64, "unit": "%"}, {"measurement": "inhibition at 0.15 µg/mL", "setting": "PDGF (20 ng/ml)", "value": 71, "unit": "%"}, {"measurement": "inhibition at 0.32 µg/mL", "setting": "PDGF (20 ng/ml)", "value": 82, "unit": "%"}, {"measurement": "inhibition at 0.64 µg/mL", "setting": "PDGF (20 ng/ml)", "value": 89, "unit": "%"}, {"measurement": "inhibition at 1.2 µg/mL", "setting": "PDGF (20 ng/ml)", "value": 93, "unit": "%"}, {"measurement": "inhibition at 2.5 µg/mL", "setting": "PDGF (20 ng/ml)", "value": 96, "unit": "%"}, {"measurement": "inhibition of smooth muscle cell proliferation induced by growth factors", "setting": "PDGF, FGF, and EGF", "value": "inhibits cell proliferation induced by PDGF, FGF, and EGF"}]}]}
